Data from article PMC12748989 (Nature Communications, 2025).

What was measured:
PBMC = conditions: 12.5 µM

Row | SMILES | Average (percentage cell inhibition), Dmastoparan MDA-MB231 12.5uM (MDA-MB-231 cells) [%] | Average (percentage cell inhibition), Mastoparan PBMC (PBMC) [%]
1 | CC[C@H](C)[C@H](N)C(=O)N[C@@H](CC(N)=O)C(=O)N[C@@H](CC(C)C)C(=O)N[C@@H](CCCCN)C(=O)N[C@@H](CC(C)C)C(=O)N[C@@H](CC(C)C)C(=O)N[C@@H](C)C(=O)N[C@@H](C)C(=O)N[C@@H](CC(C)C)C(=O)N[C@@H](C)C(=O)N[C@@H](CCCCN)C(=O)N[C@@H](CCCCN)C(=O)N[C@H](C(=O)N[C@@H](CC(C)C)C(N)=O)[C@@H](C)CC [L5] | 46.6396 | 25.5295
2 | CC[C@H](C)[C@H](N)C(=O)N[C@@H](CC(N)=O)C(=O)N[C@@H](CC(C)C)C(=O)N[C@@H](CCCCN)C(=O)N[C@@H](C)C(=O)N[C@@H](CC(C)C)C(=O)N[C@@H](CC(C)C)C(=O)N[C@@H](C)C(=O)N[C@@H](CC(C)C)C(=O)N[C@@H](C)C(=O)N[C@@H](CCCCN)C(=O)N[C@@H](CCCCN)C(=O)N[C@H](C(=O)N[C@@H](CC(C)C)C(N)=O)[C@@H](C)CC [L7] | 74.1173 | 35.4322
3 | CC[C@H](C)[C@H](N)C(=O)N[C@@H](CC(N)=O)C(=O)N[C@@H](CC(C)C)C(=O)N[C@@H](CCCCN)C(=O)N[C@@H](C)C(=O)N[C@@H](CC(C)C)C(=O)N[C@@H](C)C(=O)N[C@@H](CC(C)C)C(=O)N[C@@H](CC(C)C)C(=O)N[C@@H](C)C(=O)N[C@@H](CCCCN)C(=O)N[C@@H](CCCCN)C(=O)N[C@H](C(=O)N[C@@H](CC(C)C)C(N)=O)[C@@H](C)CC [L8] | 38.4504 | 16.9354
4 | CC[C@H](C)[C@H](N)C(=O)N[C@@H](CC(N)=O)C(=O)N[C@@H](CC(C)C)C(=O)N[C@@H](CCCCN)C(=O)N[C@@H](C)C(=O)N[C@@H](CC(C)C)C(=O)N[C@@H](C)C(=O)N[C@@H](C)C(=O)N[C@@H](CC(C)C)C(=O)N[C@@H](CC(C)C)C(=O)N[C@@H](CCCCN)C(=O)N[C@@H](CCCCN)C(=O)N[C@H](C(=O)N[C@@H](CC(C)C)C(N)=O)[C@@H](C)CC [L10] | 86.3514 | 52.7294
5 | CC[C@H](C)[C@H](N)C(=O)N[C@@H](CC(N)=O)C(=O)N[C@@H](CC(C)C)C(=O)N[C@@H](CCCCN)C(=O)N[C@@H](C)C(=O)N[C@@H](CC(C)C)C(=O)N[C@@H](C)C(=O)N[C@@H](C)C(=O)N[C@@H](CC(C)C)C(=O)N[C@@H](C)C(=O)N[C@@H](CC(C)C)C(=O)N[C@@H](CCCCN)C(=O)N[C@H](C(=O)N[C@@H](CC(C)C)C(N)=O)[C@@H](C)CC [L11] | 59.9826 | 23.4198
6 | CC[C@H](C)[C@H](N)C(=O)N[C@@H](CC(N)=O)C(=O)N[C@@H](CC(C)C)C(=O)N[C@@H](CCCCN)C(=O)N[C@@H](C)C(=O)N[C@@H](CC(C)C)C(=O)N[C@@H](C)C(=O)N[C@@H](C)C(=O)N[C@@H](CC(C)C)C(=O)N[C@@H](C)C(=O)N[C@@H](CCCCN)C(=O)N[C@@H](CC(C)C)C(=O)N[C@H](C(=O)N[C@@H](CC(C)C)C(N)=O)[C@@H](C)CC [L12] | 85.0992 | 80.1821
7 | CC[C@H](C)[C@H](N)C(=O)N[C@@H](CC(N)=O)C(=O)N[C@@H](CC(C)C)C(=O)N[C@@H](CCCCN)C(=O)N[C@@H](C)C(=O)N[C@@H](CC(C)C)C(=O)N[C@@H](C)C(=O)N[C@@H](C)C(=O)N[C@@H](CC(C)C)C(=O)N[C@@H](C)C(=O)N[C@@H](CCCCN)C(=O)N[C@@H](CCCCN)C(=O)N[C@H](C(=O)N[C@@H](CC(C)C)C(N)=O)[C@@H](C)CC [Lab Mastoparan L, reference compound] | 41.709 | 12.353
8 | CC[C@H](C)[C@H](NC(=O)[C@H](CCCCN)NC(=O)[C@H](CCCCN)NC(=O)[C@H](C)NC(=O)[C@H](CC(C)C)NC(=O)[C@H](C)NC(=O)[C@H](C)NC(=O)[C@H](CC(C)C)NC(=O)[C@H](C)NC(=O)[C@H](CCCCN)NC(=O)[C@H](CC(C)C)NC(=O)[C@H](CC(N)=O)NC(=O)[C@@H](N)CC(N)=O)C(=O)N[C@@H](CC(C)C)C(N)=O [N1] | 25.1532 | 8.003
9 | CC[C@H](C)[C@H](N)C(=O)N[C@@H](CC(N)=O)C(=O)N[C@@H](CC(N)=O)C(=O)N[C@@H](CCCCN)C(=O)N[C@@H](C)C(=O)N[C@@H](CC(C)C)C(=O)N[C@@H](C)C(=O)N[C@@H](C)C(=O)N[C@@H](CC(C)C)C(=O)N[C@@H](C)C(=O)N[C@@H](CCCCN)C(=O)N[C@@H](CCCCN)C(=O)N[C@H](C(=O)N[C@@H](CC(C)C)C(N)=O)[C@@H](C)CC [N3] | 47.2847 | -0.8054
10 | CC[C@H](C)[C@H](N)C(=O)N[C@@H](CC(N)=O)C(=O)N[C@@H](CC(C)C)C(=O)N[C@@H](CC(N)=O)C(=O)N[C@@H](C)C(=O)N[C@@H](CC(C)C)C(=O)N[C@@H](C)C(=O)N[C@@H](C)C(=O)N[C@@H](CC(C)C)C(=O)N[C@@H](C)C(=O)N[C@@H](CCCCN)C(=O)N[C@@H](CCCCN)C(=O)N[C@H](C(=O)N[C@@H](CC(C)C)C(N)=O)[C@@H](C)CC [N4] | 50.001 | 12.5207
11 | CC[C@H](C)[C@H](N)C(=O)N[C@@H](CC(N)=O)C(=O)N[C@@H](CC(C)C)C(=O)N[C@@H](CCCCN)C(=O)N[C@@H](CC(N)=O)C(=O)N[C@@H](CC(C)C)C(=O)N[C@@H](C)C(=O)N[C@@H](C)C(=O)N[C@@H](CC(C)C)C(=O)N[C@@H](C)C(=O)N[C@@H](CCCCN)C(=O)N[C@@H](CCCCN)C(=O)N[C@H](C(=O)N[C@@H](CC(C)C)C(N)=O)[C@@H](C)CC [N5] | 45.6062 | 6.591
12 | CC[C@H](C)[C@H](N)C(=O)N[C@@H](CC(N)=O)C(=O)N[C@@H](CC(C)C)C(=O)N[C@@H](CCCCN)C(=O)N[C@@H](C)C(=O)N[C@@H](CC(N)=O)C(=O)N[C@@H](C)C(=O)N[C@@H](C)C(=O)N[C@@H](CC(C)C)C(=O)N[C@@H](C)C(=O)N[C@@H](CCCCN)C(=O)N[C@@H](CCCCN)C(=O)N[C@H](C(=O)N[C@@H](CC(C)C)C(N)=O)[C@@H](C)CC [N6] | 7.402 | 6.768
13 | CC[C@H](C)[C@H](N)C(=O)N[C@@H](CC(N)=O)C(=O)N[C@@H](CC(C)C)C(=O)N[C@@H](CCCCN)C(=O)N[C@@H](C)C(=O)N[C@@H](CC(C)C)C(=O)N[C@@H](CC(N)=O)C(=O)N[C@@H](C)C(=O)N[C@@H](CC(C)C)C(=O)N[C@@H](C)C(=O)N[C@@H](CCCCN)C(=O)N[C@@H](CCCCN)C(=O)N[C@H](C(=O)N[C@@H](CC(C)C)C(N)=O)[C@@H](C)CC [N7] | 28.8818 | 10.586
14 | CC[C@H](C)[C@H](N)C(=O)N[C@@H](CC(N)=O)C(=O)N[C@@H](CC(C)C)C(=O)N[C@@H](CCCCN)C(=O)N[C@@H](C)C(=O)N[C@@H](CC(C)C)C(=O)N[C@@H](C)C(=O)N[C@@H](CC(N)=O)C(=O)N[C@@H](CC(C)C)C(=O)N[C@@H](C)C(=O)N[C@@H](CCCCN)C(=O)N[C@@H](CCCCN)C(=O)N[C@H](C(=O)N[C@@H](CC(C)C)C(N)=O)[C@@H](C)CC [N8] | 46.3177 | 16.8851
15 | CC[C@H](C)[C@H](N)C(=O)N[C@@H](CC(N)=O)C(=O)N[C@@H](CC(C)C)C(=O)N[C@@H](CCCCN)C(=O)N[C@@H](C)C(=O)N[C@@H](CC(C)C)C(=O)N[C@@H](C)C(=O)N[C@@H](C)C(=O)N[C@@H](CC(N)=O)C(=O)N[C@@H](C)C(=O)N[C@@H](CCCCN)C(=O)N[C@@H](CCCCN)C(=O)N[C@H](C(=O)N[C@@H](CC(C)C)C(N)=O)[C@@H](C)CC [N9] | 3.242 | 3.083
16 | CC[C@H](C)[C@H](N)C(=O)N[C@@H](CC(N)=O)C(=O)N[C@@H](CC(C)C)C(=O)N[C@@H](CCCCN)C(=O)N[C@@H](C)C(=O)N[C@@H](CC(C)C)C(=O)N[C@@H](C)C(=O)N[C@@H](C)C(=O)N[C@@H](CC(C)C)C(=O)N[C@@H](CC(N)=O)C(=O)N[C@@H](CCCCN)C(=O)N[C@@H](CCCCN)C(=O)N[C@H](C(=O)N[C@@H](CC(C)C)C(N)=O)[C@@H](C)CC [N10] | 9.754 | 1.8653
17 | CC[C@H](C)[C@H](N)C(=O)N[C@@H](CC(N)=O)C(=O)N[C@@H](CC(C)C)C(=O)N[C@@H](CCCCN)C(=O)N[C@@H](C)C(=O)N[C@@H](CC(C)C)C(=O)N[C@@H](C)C(=O)N[C@@H](C)C(=O)N[C@@H](CC(C)C)C(=O)N[C@@H](C)C(=O)N[C@@H](CC(N)=O)C(=O)N[C@@H](CCCCN)C(=O)N[C@H](C(=O)N[C@@H](CC(C)C)C(N)=O)[C@@H](C)CC [N11] | 40.5108 | 4.624
18 | CC[C@H](C)[C@H](N)C(=O)N[C@@H](CC(N)=O)C(=O)N[C@@H](CC(C)C)C(=O)N[C@@H](CCCCN)C(=O)N[C@@H](C)C(=O)N[C@@H](CC(C)C)C(=O)N[C@@H](C)C(=O)N[C@@H](C)C(=O)N[C@@H](CC(C)C)C(=O)N[C@@H](C)C(=O)N[C@@H](CCCCN)C(=O)N[C@@H](CC(N)=O)C(=O)N[C@H](C(=O)N[C@@H](CC(C)C)C(N)=O)[C@@H](C)CC [N12] | 52.6491 | 5.917
19 | CC[C@H](C)[C@H](N)C(=O)N[C@@H](CC(N)=O)C(=O)N[C@@H](CC(C)C)C(=O)N[C@@H](CCCCN)C(=O)N[C@@H](C)C(=O)N[C@@H](CC(C)C)C(=O)N[C@@H](C)C(=O)N[C@@H](C)C(=O)N[C@@H](CC(C)C)C(=O)N[C@@H](C)C(=O)N[C@@H](CCCCN)C(=O)N[C@@H](CCCCN)C(=O)N[C@@H](CC(N)=O)C(=O)N[C@@H](CC(C)C)C(N)=O [N13] | 29.0846 | 7.072
